The source of these data is ChEMBL document CHEMBL2057120, “Chromatin structure determines accessibility of a hairpin polyamide-chlorambucil conjugate at histone H4 genes in pancreatic cancer cells” (Bioorg Med Chem Lett, 2012).

Activity calls are given as the source filed them. The calls are words filed in the database; no cut-off is given here.

The test system of data set [1] is MIA PaCa-2. Put plainly: Downregulation of histone HJK mRNA expression in human MIAPaCa2 cells at 50 uM after 72 hrs by quantitative RT-PCR analysis. It counts as functional, cell-based.
Data set [2] concerns HEK293. Briefly: Selectivity ratio of GI50 for human HEK293 cells to GI50 for human MIAPaCa2 cells.
For data set [3], the system named is MIA PaCa-2. Briefly: Downregulation of histone H4H mRNA expression in human MIAPaCa2 cells at 50 uM after 72 hrs by quantitative RT-PCR analysis. It counts as functional, cell-based.
For data set [4], the system named is MIA PaCa-2. Put plainly: Downregulation of histone H4AB mRNA expression in human MIAPaCa2 cells at 50 uM after 72 hrs by quantitative RT-PCR analysis. Type of data set: functional, cell-based.
Data set [5] relates to MIA PaCa-2. Put plainly: Downregulation of histone 4H4 mRNA expression in human MIAPaCa2 cells at 50 uM after 72 hrs by quantitative RT-PCR analysis. Type of data set: functional, cell-based.
The subject of data set [6] is HEK293. Briefly: Downregulation of histone H4E mRNA expression in human HEK293 cells at 250 uM after 72 hrs by quantitative RT-PCR analysis. Type of data set: ADME, cell-based. As to conditions: hek293, 72 h.
In data set [7] the test system is HEK293. Briefly: Downregulation of histone H4B mRNA expression in human HEK293 cells at 250 uM after 72 hrs by quantitative RT-PCR analysis. Particulars: hek293, 72 h. Type of data set: ADME, cell-based.
The test system of data set [8] is MIA PaCa-2. Put plainly: Downregulation of histone H4C mRNA expression in human MIAPaCa2 cells at 50 uM after 72 hrs by quantitative RT-PCR analysis. Type of data set: functional, cell-based.
Data set [9] concerns MIA PaCa-2. Put plainly: Downregulation of histone H4D mRNA expression in human MIAPaCa2 cells at 50 uM after 72 hrs by quantitative RT-PCR analysis. Type of data set: functional, cell-based.
The test system of data set [10] is HEK293. Briefly: Downregulation of histone HJK mRNA expression in human HEK293 cells at 250 uM after 72 hrs by quantitative RT-PCR analysis. Particulars: hek293, 72 h. It counts as ADME, cell-based.
Data set [11] relates to HEK293. Briefly: Downregulation of histone H4L mRNA expression in human HEK293 cells at 250 uM after 72 hrs by quantitative RT-PCR analysis. It counts as ADME, cell-based. Particulars: hek293, 72 h.
For data set [12], the system named is HEK293. Briefly: Downregulation of histone 4H4 mRNA expression in human HEK293 cells at 250 uM after 72 hrs by quantitative RT-PCR analysis. It counts as ADME, cell-based. Particulars: hek293, 72 h.
In data set [13] the test system is HEK293. Briefly: Downregulation of histone H4AB mRNA expression in human HEK293 cells at 250 uM after 72 hrs by quantitative RT-PCR analysis. It counts as ADME, cell-based. Particulars: hek293, 72 h.
Data set [14] has as its system MIA PaCa-2. Briefly: Growth inhibition of human MIAPaCa2 cells after 6 days by MTS assay. Type of data set: functional. As to conditions: MIA PaCa-2, 144 h. For orientation: Tetrazolium dyes change colour on reduction, which living cells bring about.
For data set [15], the system named is MIA PaCa-2. Put plainly: Downregulation of histone H4E mRNA expression in human MIAPaCa2 cells at 50 uM after 72 hrs by quantitative RT-PCR analysis. Type of data set: functional, cell-based.
Data set [16] deals with HEK293. Briefly: Downregulation of histone H4D mRNA expression in human HEK293 cells at 250 uM after 72 hrs by quantitative RT-PCR analysis. It counts as ADME, cell-based. Particulars: hek293, 72 h.
In data set [17] the test system is HEK293. Briefly: Downregulation of histone H4C mRNA expression in human HEK293 cells at 250 uM after 72 hrs by quantitative RT-PCR analysis. Type of data set: ADME, cell-based. As to conditions: hek293, 72 h.
Data set [18] concerns HEK293. Put plainly: Downregulation of histone H4A mRNA expression in human HEK293 cells at 250 uM after 72 hrs by quantitative RT-PCR analysis. Particulars: hek293, 72 h. It counts as ADME, cell-based.
For data set [19], the system named is MIA PaCa-2. Briefly: Downregulation of histone H4B mRNA expression in human MIAPaCa2 cells at 50 uM after 72 hrs by quantitative RT-PCR analysis. Type of data set: functional, cell-based.
Data set [20] can be described thus: Drug uptake in human HEK293 cell nucleus using BODIPY labeled compound at 500 uM after 16 hrs by […] microscopic analysis. Type of data set: ADME, cell-based. Particulars: hek293, 16 h.
In data set [21] the test system is MIA PaCa-2. Briefly: Downregulation of histone H4A mRNA expression in human MIAPaCa2 cells at 50 uM after 72 hrs by quantitative RT-PCR analysis. Type of data set: functional, cell-based.
Data set [22] has as its system MIA PaCa-2. Briefly: Downregulation of histone H4L mRNA expression in human MIAPaCa2 cells at 50 uM after 72 hrs by quantitative RT-PCR analysis. Type of data set: functional, cell-based.
A short description of data set [23]: Growth inhibition of human HEK293 cells after 6 days by MTS assay. Type of data set: cell-based.
For data set [24], the system named is HEK293. Put plainly: Downregulation of histone H4H mRNA expression in human HEK293 cells at 250 uM after 72 hrs by quantitative RT-PCR analysis. Type of data set: ADME, cell-based. As to conditions: hek293, 72 h.

A word on the GI50: it is the concentration giving 50% growth inhibition. Low readings indicate greater sensitivity of the cells, high ones lower sensitivity of the cells. As to `CN(C)CCCNC(=O)CCNC(=O)c1cc(NC(=O)c2cc(NC(=O)c3cc(NC(=O)c4cc(NC(=O)[C@@H](CCNC(=O)CCCc5ccc(N(CCCl)CCCl)cc5)NC(=O)c5nc(NC(=O)CCNC(=O)c6nc(NC(=O)c7nccn7C)cn6C)cn5C)cn4C)cn3C)cn2C)cn1C`, the outcome in the data set with MIA PaCa-2 [1], with MIA PaCa-2 [3], in the data set on MIA PaCa-2 [4], with MIA PaCa-2 [5], in the data set with MIA PaCa-2 [8] and with MIA PaCa-2 [9] was Active. The result in the data set on MIA PaCa-2 [15], with MIA PaCa-2 [19], in the data set with MIA PaCa-2 [21] and with MIA PaCa-2 [22] was Active. The RatioGI50 with HEK293 [2] came to 25. Further, the Activity result in the data set with HEK293 [6], with HEK293 [7], in the data set with HEK293 [10], in the data set with HEK293 [11], in the data set on HEK293 [12] and with HEK293 [13] was “Non-toxic” throughout. In addition, the Activity result with HEK293 [16], with HEK293 [17], in the data set with HEK293 [18] and with HEK293 [24] was “Non-toxic” throughout. In addition, the GI50 in the data set on MIA PaCa-2 [14] amounted to 16 nM. For the same compound, in data set [20], the Drug uptake result is “Active”. Further, it took 400 nM to inhibit growth in data set [23] by half (GI50 at 144 h).
